Assay results taken from patent US10788496B2, “MEK1 mutation conferring resistance to RAF and MEK inhibitors” (Dana-Farber Cancer Institute, Inc., priority 2010, dated 2020).

Tests used:
[1] = test system: A375 cells expressing the MEK1 C121S mutation; experiment: Growth inhibition of A375 melanoma cells transfected with MEK1 C121S mutant; type: cell-based; conditions: for resistance of cells to the inhibitor (in words): A375 cells expressing MEK1 C121S, growth inhibition; for fold greater GI-50 value of MEK1 C121S cells: versus wild-type A375 cells or A375 cells expressing MEK-WT (for AZD6244 also MEK-DD)
From the text: FIGS. 1A and 1B are graphs showing the percent growth inhibition of A375 melanoma cells treated with increasing concentrations (in μM) of either the BRAF inhibitor PLX4720 (FIG. 1A) or the MEK1 inhibitor AZD6244 (FIG. 1B), wherein the A375 cells were either untransfected (A375), transfected with wild-type MEK1 (MEK-WT), transfected with the MEK1 C121S mutant (MEK-C121S) or transfected with a constitutively active MEK variant (MEK-DD).
It has previously been shown that mutations proximal to the C-helix of MEK1 can confer resistance to BRAF inhibition by PLX4032 by upregulating intrinsic MEK1 kinase activity (Emery, C. M. et al., (2009) Proc. Natl. Acad. Sci. USA 106:20411-20416). Therefore, it seemed plausible that the MEK1 C121 mutation, which is also located proximal to the C-helix, might have caused resistance to PLX4032 in the patient's recurrent tumor. To test this, the C121S was introduced mutation into the sequence of wild-type MEK1 and the mutant cDNA was expressed in the A375 melanoma cell line, which harbors a BRAF V600E mutation. To introduce the […] mutation into the wild-type MEK1 sequence, MEK1 site-directed mutagenesis was performed as previously described (Emery, C. M. et al., (2009) Proc. Natl. Acad. Sci. USA […]). Briefly, MEK1 cDNA was amplified by PCR and site-directed mutagenesis was conducted using Quick-Change II (Stratagene) as per the manufacturer's instructions. As controls, the wild-type MEK1 sequence or a constitutively active variant of MEK1, referred to as MEK1-DD, was expressed in the A375 melanoma cells.
To examine the effect of the MEK1 C121S mutation on responsiveness of the A375 melanoma cells to inhibitors, A375 cells (either untransfected cells, or cells transfected with either the wild-type MEK1, the C121S mutant MEK1, or the constitutively active variant MEK1-DD) were treated with increasing amounts of either the BRAF inhibitor PLX4720 (purchased from Symansis, Inc.), which is a compound closely related to PLX4032, or the MEK1 inhibitor AZD6244 (purchased from Selleck Chemical Co., Ltd.). The results are shown in the graphs of FIGS. 1A (PLX4720 treatment) and 1B (AZD6244 treatment).

MEK = conditions: cited from earlier work
[2] = test system: human colon cancer xenograft; conditions: cited from earlier work
[3] = test system: metastatic melanoma with BRAF V600E mutation; experiment: Case of a patient with BRAF V600E metastatic melanoma treated with PLX4032 in a clinical trial; type: in vivo, human; conditions: single patient
Procedure: The patient was a person who was diagnosed with metastatic melanoma in February 2009. […] They were treated with several therapeutic regimens with minimal clinical response. By October 2009, the patient had developed numerous subcutaneous metastatic deposits.
In late February 2010, after 4 months of therapy with PLX4032, the patient rapidly developed new subcutaneous nodules all over their body and PLX4032 was stopped. At this point, they provided written informed consent and a percutaneous core biopsy of a recurrent subcutaneous nodule on the chest was obtained. In order to determine possible mechanisms of resistance to PLX4032 in this tumor, the exons from 138 cancer genes from this sample were sequenced using massively parallel sequencing. The patient continued to have rapid progression of their disease and died on hospice in March 2010.

[4] = test system: melanoma with BRAF V600E mutations; conditions: cited from earlier work

With `Cn1cnc2c(F)c(Nc3ccc(Br)cc3Cl)c(C(=O)NOCCO)cc21` [AZD6244] the “resistance of cells to the inhibitor (in words)” value [1] was “strongly resistant” and the “fold greater GI-50 value of MEK1 C121S cells” value [1] was about 1000 fold.
In the case of `O=C(NOCC1CC1)c1ccc(F)c(F)c1Nc1ccc(I)cc1Cl` [CI-1040], the “MEK inhibition in cell-based assays (in words)” value (MEK) is listed as “inhibited MEK” and the “effect on xenograft growth (in words)” value [2] is listed as “reduced human colon cancer xenograft growth”.
In the case of `CCCS(=O)(=O)Nc1ccc(F)c(C(=O)c2c[nH]c3ncc(-c4ccc(Cl)cc4)cc23)c1F` [PLX4032], the “duration of therapy until new subcutaneous nodules developed (relapse)” value [3] is reported as 4 months, the “tumor response (in words)” value ([3]; after 15 weeks of therapy) is reported as “near complete regression of all visible tumor nodules” and the “time to visible partial response” value ([3]; from starting PLX4032) is reported as at most 2 weeks. For the same compound, the “patients with at least 30% tumor response by RECIST criteria” value ([4]; Phase I, 19 of 27 patients, oral) was 70% and the “average time to relapse (resistance)” value ([4]; patients treated with PLX4032) was 9 months.
In the case of `CCCS(=O)(=O)Nc1ccc(F)c(C(=O)c2c[nH]c3ncc(Cl)cc23)c1F` [PLX4720], the “resistance of cells to the inhibitor (in words)” value [1] is reported as “strongly resistant” and the “fold greater GI-50 value of MEK1 C121S cells” value [1] is reported as 100 fold.
